Target: lysozyme (Gallus gallus, UniProt P00698)
Experiment: Relative inhibition of lysozyme (I50), UV spectrophotometric method with Micrococcus lysodeikticus as substrate
Assay type: biochemical
Details: copolymers prepared in absence of lysozyme, and NAG
Procedure: This example describes estimation of inhibition concentration (I50) for lysozyme imprinted polyvalent copolymers and polyvalent copolymers prepared in the absence of lysozymne by UV spectrophotometric method. Micrococcus lysodeikticus is a substrate for the enzyme lysozyme. Relative binding of copolYmers was estimated by using a procedure reported by Neuberger and Wilson (1967). 1.5% w/v stock solutions of non imprinted copolymer was prepared in 0.0066 M phosphate buffer pH 6.2 containing 0.0154 M sodium chloride and 0.008 M sodium azide. One milliliter of stock solution containing different copolymer concentration was mixed with 1.6 ml of 78 μg/ml of Micrococcus lysodeikticus in a 3-ml capacity glass cuvette. The mixture was incubated for 5 minutes at 20° C. To this mixture 0.1 ml of lysozyme (27 μg/ml) was added and mixed thoroughly. The relative absorbance at 450 nm (Δ450) was recorded for 30 seconds. A blank reading without the copolymer was noted and the change in the absorbance per second was calculated. Then relative inhibition was calculated.

Sequence of lysozyme (P00698 19-147): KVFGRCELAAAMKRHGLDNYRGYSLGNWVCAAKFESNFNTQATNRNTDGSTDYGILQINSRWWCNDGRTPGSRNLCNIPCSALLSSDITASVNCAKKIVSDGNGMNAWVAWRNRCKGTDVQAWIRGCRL

CC(=O)N[C@H]1C(O)O[C@H](CO)[C@@H](O)[C@@H]1O (stereo partly drawn) [NAG, N-Acetyl Glucosamine]
I max (concentration at maximum inhibition): 92000 nM | I max: 55.29 | IC50 (read-out: Relative Inhibition Iso (I50)): 74 µM
